Source: PubChem BioAssay (NCI)
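Method: 48-hour compound exposure of cells in 96-well plates, five concentrations, linear interpolation of endpoints. TGI marks complete inhibition of growth.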

Columns and labels:
Experiment in all cases: NCI-60 cell line screen, 48 h
[1] = test system: RXF 393 renal
[2] = test system: RPMI-8226 leukemia
[3] = test system: HT29 colon
[4] = test system: SK-MEL-5 melanoma
[5] = test system: KM20L2 colon
[6] = test system: SF-268 CNS
[7] = test system: SN12C renal
[8] = test system: NCI-H522 lung
[9] = test system: SW-620 colon
[10] = test system: SF-539 CNS
[11] = test system: NCI-H460 lung
[12] = test system: OVCAR-8 ovarian
[13] = test system: NCI-H23 lung
[14] = test system: HCT-116 colon
[15] = test system: EKVX NSCLC
[16] = test system: SNB-19 CNS
[17] = test system: UACC-257 melanoma
[18] = test system: A498 renal
[19] = test system: MDA-MB-435
[20] = test system: MDA-N

SMILES	TGI [1] [µM]	TGI [2] [µM]	TGI [3] [µM]	TGI [4] [µM]	TGI [5] [µM]	TGI [6] [µM]	TGI [7] [µM]	TGI [8] [µM]	TGI [9] [µM]	TGI [10] [µM]	TGI [11] [µM]	TGI [12] [µM]	TGI [13] [µM]	TGI [14] [µM]	TGI [15] [µM]	TGI [16] [µM]	TGI [17] [µM]	TGI [18] [µM]	TGI [19] [µM]	TGI [20] [µM]
CCN(CC)C(=O)CCn1ccc(=O)[nH]c1=O	> 100	> 100	> 100	> 100	> 100	> 100	> 100	> 100	> 100	> 100	> 100	> 100	> 100	> 100	> 100	> 100	–	–	–	–
O=C1C(Cl)C(c2cccc([N+](=O)[O-])c2)N1n1cnc2ccccc2c1=O (stereo not given)	> 100	> 100	> 100	> 100	> 100	> 100	> 100	> 100	> 100	–	> 100	> 100	> 100	> 100	> 100	> 100	> 100	–	–	–
C[C@@H]1C(=O)CC2C(C)(C)CCC[C@]2(C)[C@@]12CC[C@]1(C=COC1)O2 (stereo not given in full)	56.3	–	> 100	–	> 100	> 100	38	50	> 100	> 100	> 100	> 100	–	> 100	> 100	> 100	–	–	–	–
Cc1ccc2c(c1C)C(=O)C1(C2)Cc2ccc3c(c2C1=O)CCC3 (stereo not given)	> 100	> 100	> 100	> 100	–	> 100	> 100	> 100	> 100	> 100	> 100	> 100	> 100	> 100	> 100	> 100	> 100	> 100	> 100	> 100
O=C1CSCC(=O)Nc2ccccc2N1	> 100	> 100	> 100	> 100	–	> 100	> 100	> 100	> 100	> 100	> 100	> 100	> 100	> 100	> 100	> 100	> 100	> 100	> 100	> 100
CC1=C(O)C(=O)C=C2C1=CC=C1[C@@]2(C)CC[C@@]2(C)C3C[C@@H](C)C(=O)[C@@H](O)[C@]3(C)CC[C@]12C (stereo not given in full)	3.49	5.08	3.79	12.7	–	11	4.89	2.34	2.32	4.33	37.6	5.47	3.6	3.21	4.12	9.23	7.46	12.4	6.6	3.3
O=C1C2C3C4C1C1C2[C@H](OCc2ccccc2)C3C1[C@H]4OCc1ccccc1 (stereo not given in full)	> 100	> 100	32.7	> 100	–	> 100	> 100	57.9	> 100	> 100	> 100	> 100	> 100	> 100	89.1	> 100	> 100	> 100	> 100	> 100
CC(C)(C)C(=O)/C=C(\OB(F)F)C(C)(C)C	> 100	> 100	> 100	> 100	–	> 100	> 100	> 100	> 100	> 100	> 100	> 100	> 100	> 100	> 100	> 100	> 100	> 100	> 100	> 100
N#Cc1cc2c(cc1C#N)SCCSCCCSCCS2	18.1	> 100	> 100	> 100	–	29.9	> 100	> 85.7	> 100	43.2	> 53.8	31.8	38.3	> 86.6	> 100	22.9	> 100	> 92.1	> 100	> 100
COC(=O)c1c(O)c(C#N)c2[nH]c3ccccc3n2c1=O	> 100	> 100	> 100	> 100	–	> 100	> 100	> 100	> 100	> 100	> 100	> 100	> 100	> 100	> 100	> 100	> 100	> 100	> 100	> 100
CC(C)(C)N(Cc1ccccc1)C(=O)/C=C\S(=O)c1ccccc1 (stereo not given)	13.8	7.78	14.3	15.9	–	6.96	8.66	2.7	9.13	9.67	16	4.16	7.74	7.05	24.1	23.6	16.2	26.5	11.3	8.64
Cc1ccc(S(=O)(=O)NNC(=O)Nc2cccc(C(F)(F)F)c2)cc1	> 100	> 100	> 100	> 100	–	> 100	> 100	> 100	> 100	> 100	> 100	> 100	> 100	> 100	> 100	> 100	> 100	> 100	> 100	> 100
COC1=C(C(c2cc(OC)c(OC)c(OC)c2)c2cc3c(cc2OC)OCO3)C(=O)OC1 (stereo not given)	43.6	> 100	51.4	> 62.6	–	> 79.8	> 100	> 100	> 100	41.2	> 84.7	73.9	> 80	33.5	> 81.6	> 95.6	> 100	> 71.9	17.5	17.1
